Calls of active or inactive are those of the source. A value given as a limit tells only on which side of the number the result lay.

Assay [1] concerns the target T1, Oxysterols receptor LXR-beta (Homo sapiens, UniProt P55055).
T1 sequence (P55055 whole entry): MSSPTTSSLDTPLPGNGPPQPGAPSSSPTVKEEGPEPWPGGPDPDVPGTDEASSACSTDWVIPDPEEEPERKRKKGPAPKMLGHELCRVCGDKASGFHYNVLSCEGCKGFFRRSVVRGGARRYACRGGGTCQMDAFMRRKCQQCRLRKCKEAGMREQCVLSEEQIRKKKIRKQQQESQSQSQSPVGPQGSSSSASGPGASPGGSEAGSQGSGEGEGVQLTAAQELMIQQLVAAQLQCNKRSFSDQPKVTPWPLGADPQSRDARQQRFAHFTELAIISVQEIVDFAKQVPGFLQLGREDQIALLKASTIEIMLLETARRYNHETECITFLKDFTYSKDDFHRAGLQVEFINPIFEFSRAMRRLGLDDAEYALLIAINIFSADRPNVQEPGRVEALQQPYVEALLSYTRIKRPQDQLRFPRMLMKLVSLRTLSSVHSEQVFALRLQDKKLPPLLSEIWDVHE
The experiment in a line: LXR agonists, Gal4 luciferase reporter, dose response, counter-screen for ssDAF-12 agonist project, cell-based, luminescence, HEK293, S. stercoralis campaign (AID 720737). The format is functional. The note with it: read-out: IC50 (the source's name). In general terms: In a reporter assay the amount or activity of a reporter protein is the signal.

Assay [2] is described as follows: Luminescence-based cell-based high throughput dose response assay to identify activators of the DAF-12 from the parasite S. stercoralis (ssDAF-12). The format is functional.
Assay [3] can be described thus: antimalarial activity against Dd2 parasites – SYBR Green fluorescence, erythrocytes, dry powder, set 2, dose response (AID 1159574). The format is functional, cell-based.
Assay [4] addresses RNA-editing ligase 1, mitochondrial (Trypanosoma brucei brucei, UniProt P86926). In words: inhibition of trypanosome RNA editing ligase – biochemical, fluorescence, Trypanosoma brucei, dose response (AID 1117295). The format is functional.
Assay [5] can be described thus: Dd2 parasite growth inhibition in erythrocytes – SYBR Green, dry powder samples, set 9, dose response (AID 1159568). Format: functional, cell-based.
Assay [6] in a line: Dd2 malaria parasite growth inhibition potency – SYBR Green, dry powder samples, dose response (AID 1159566).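 Also: potency for growth inhibition with lower SYBR green DNA signal.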 Format: functional, cell-based.
Assay [7] is described as follows: growth inhibition of yeast DHODH-expressing 3D7 parasites – SYBR Green, dry powder samples, dose response (AID 1159570).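 Also: parasite growth measured after 72 hours of compound exposure.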 The format is functional, cell-based.
Assay [8] can be described thus: growth inhibition of PfATP4-mutant resistant parasites – NITD609-resistant line, SYBR Green, dry powder, dose response (AID 1159571).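 Also: parasites synchronized at ring stage by sorbitol before testing.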 The format is functional, cell-based.
Assay [9] in a line: P. falciparum Dd2 growth inhibitors, dose response, SYBR Green, cherry-picked samples (AID 1159567). Format: functional, cell-based.
Assay [10] is described as follows: toxicity to human HepG2 hepatoma cells – cell-based, plate reader, dry powder samples, cytotoxicity control, dose response (AID 1159569).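 Also: inhibitor potency with signal falling toward the positive control level.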 The format is functional.
A short description of assay [11]: TB: CFU replicating Measured in Microorganism System Using Imaging - 7108-05_Inhibitor_Dose_DryPowder_Activity_Set2. Format: functional.
A short description of assay [12]: RKO cell viability reduction, dose response, CellTiter-Glo luminescence (AID 1117322). Format: functional. Background: Cellular ATP, detected with luciferase, serves as a proxy for viable cell number.
For assay [13], the target named is Heat shock protein HSP 90-alpha (Homo sapiens, UniProt P07900). The format is functional, organism-based.
Assay [14] is described as follows: Reduced DLD-1 viability, concentration-response, CellTiter-Glo luminescence (AID 1117352). Format: functional.
A short description of assay [15]: SNU-C1 cell viability reduction, dose response, CellTiter-Glo luminescence (AID 1117323). Format: functional, cell-based.
Assay [16] can be described thus: CellTiter-Glo luminescence survival assay, SW480 colon tumor line, concentration-response curve, half-maximal inhibitory concentration (AID 1117338). Format: functional.
Assay [17] in a line: cytotoxicity toward HT-29 cells – cell-based, CellTiter-Glo luminescence, IC50, dose response (AID 1117330). The format is functional.
Assay [18] can be described thus: HCT116 cell viability decrease, GSK3B pretreatment – CellTiter-Glo, IC50, dose response (AID 1117339). Format: functional. The note with it: HCT-116.
Assay [19] in a line: Potency on glucagon-like peptide 1 release, dose-response in NCI-H716 cell line, half maximal inhibitory concentration (AID 1117344). Format: functional, cell-based.
A short description of assay [20]: cytotoxicity toward Colo320 cells – cell-based, CellTiter-Glo luminescence, IC50, dose response (AID 1117334). Format: functional. Particulars: COLO 320.
Assay [21] in a line: cytotoxicity toward HCT116 cells – cell-based, CellTiter-Glo luminescence, IC50, dose response (AID 1117332). The format is functional. Particulars: HCT-116.
Assay [22] can be described thus: microbe, parasite or virus in culture. The format is functional. Particulars: Mycobacterium tuberculosis.
A short description of assay [23]: glucagon-like peptide-1 release potency in STC-1, concentration-response, half-maximal inhibitory concentration in the STC-1 line (AID 1117345). The format is functional, cell-based.
Assay [24] deals with T2, Ubiquitin-conjugating enzyme E2 N (Homo sapiens, UniProt P61088).
T2 sequence (P61088 whole entry): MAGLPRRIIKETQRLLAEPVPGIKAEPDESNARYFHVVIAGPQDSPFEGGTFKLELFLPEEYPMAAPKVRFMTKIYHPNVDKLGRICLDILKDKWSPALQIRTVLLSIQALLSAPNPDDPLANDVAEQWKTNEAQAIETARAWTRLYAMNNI
Format: functional.

A short description of assay [25]: rise of 2N DNA cells, HeLa – IC50, dose response (AID 1117349). Format: functional, cell-based.
Assay [26] is described as follows: rise of 4N DNA cells, HeLa – IC50, dose response (AID 1117351). The format is functional, cell-based.

RNA-editing ligase 1, mitochondrial, sequence (P86926 whole entry): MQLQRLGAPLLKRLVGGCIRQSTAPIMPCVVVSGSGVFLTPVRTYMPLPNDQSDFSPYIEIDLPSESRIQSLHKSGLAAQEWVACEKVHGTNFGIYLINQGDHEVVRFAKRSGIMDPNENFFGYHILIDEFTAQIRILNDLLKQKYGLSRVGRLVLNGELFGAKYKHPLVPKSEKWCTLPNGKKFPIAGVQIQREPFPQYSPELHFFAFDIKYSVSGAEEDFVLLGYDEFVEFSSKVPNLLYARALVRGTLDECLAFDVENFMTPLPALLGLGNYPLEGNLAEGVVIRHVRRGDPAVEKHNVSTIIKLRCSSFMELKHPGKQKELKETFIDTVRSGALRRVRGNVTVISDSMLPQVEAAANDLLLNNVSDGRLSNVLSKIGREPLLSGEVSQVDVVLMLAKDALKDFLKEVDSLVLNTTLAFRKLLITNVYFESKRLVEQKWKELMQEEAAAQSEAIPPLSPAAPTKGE

For `O=C(Cc1ccccc1[N+](=O)[O-])NCCc1ccc(F)cc1`, in assay [1], the EC50 is > 67.6 µM (inactive). Also, the IC50 (in general, the concentration that gives 50% inhibition) in [2] was > 67.6 µM (inactive).

As for `COc1ccc(S(=O)(=O)N(C)C[C@H]2OCc3ccccc3-c3c(n(C)c4ccccc34)C(=O)N([C@H](C)CO)C[C@H]2C)cc1`, in assay [3], the half-maximal activity concentration (AC50) (in general, the concentration at which the activity in the assay is half-maximal) was 6.22 µM (active).

As to `COC(=O)C1=C(C)N(Cc2ccccc2C(F)(F)F)C(NCc2ccc(OC)cc2)=NC1c1cccc(Cl)c1` (stereo unspecified), in assay [4], the IC50 is > 96.6 µM (inactive).

Regarding `Cc1ccc(S(=O)(=O)N(C)C[C@@H]2Oc3cc(C#CC4CCCC4)ccc3S(=O)(=O)N([C@@H](C)CO)C[C@H]2C)cc1`, the AC50 in assay [5] was 1.33 µM (active).

In the case of `COc1ccc(C#Cc2ccc([C@@H]3[C@@H](CO)N4CCCCN(C(=O)Nc5ccccc5F)C[C@H]34)cc2)cc1`, the AC50 in assay [6] is 0.8 µM (active); in assay [7], 1.37 µM (active); in assay [8], 1.45 µM (active); in assay [9] it was 1.89 µM (active); in [10], 15.7 µM (active).

For `Cc1cccc(C(=O)Nc2nc3ccccc3n2C)c1`, the AbsAC90 in [11] came to 360.23 µM.

Regarding `Clc1ccc(CCC(Cn2ccnc2)Sc2c(Cl)cccc2Cl)cc1` (stereo unspecified) [BUTOCONAZOLE NITRATE], the concentration for half-maximal inhibition (IC50) is 2.3 µM (active) in [12]; 1.84 µM (active) in assay [14]; 0.996 µM (active) in [15]; 1.69 µM (active) in assay [16]; 3.01 µM (active) in assay [17]; 0.841 µM (active) in assay [18]. In addition, the IC50 was 16 µM (inactive) in [19]; 0.221 µM (active) in assay [20]; 2.06 µM (active) in assay [21]; 7 µM (inactive) in assay [23]; > 20 µM (inactive) in assay [24]. In assay [13], the concentration at half-maximal activity (AC50) was < 0.195 µM (active). Further, the CC50 in [22] was 37.6 µM (active).

For `COc1cc(-c2ccc(=O)[nH]n2)ccc1OC(F)F` [ZARDAVERINE], the IC50 in assay [25] and in [26] was > 10 µM (inactive) throughout.
